Experimental data from patent US20150125550A1, “APPLICATION OF 2,9-DI-SEC-BUTYL-1,10-PHENANTHROLINE AS A GLIOBLASTOMA TUMOR CHEMOTHERAPY” (priority 2013, published 2015).

What was measured:
[1] = tested on: GL-26 glioma; assay: In-vivo intracranial GL-26 glioma model; design: species or system C57BL/6 mice
Experimental: Female C57BL/6 mice were obtained from Jackson Laboratories and maintained in a pathogen free environment under IACUC established protocols at the University of California Riverside. Mice were anesthetized with continuous administration of 2.5% isofluorane. Cultured GL-26 cells were harvested by trypsinization and 90,000 GL-26 cells in 3 μL of sterile Na+/K+ balanced PBS were injected intracranially. The injection was administered 1 mm anterior and 2 mm lateral to the junction of the coronal and sagittal sutures (bregma), at a depth of 2 mm using a stereotactic mouse frame. Care was taken in alternating injection order and group assignment (treated vs. non-treated) to assure equal GL-26 cell viability between the two treatment groups. SBP was administered intravenously through the retro-orbital route at a concentration of 10 mg/kg in 200 μL sterile Na+/K+ balanced PBS. Drug was administered one, seven, and 13 days after tumor implantation.
Histology: For brain tumor histology, mice were perfused intracardially with 4% formaldehyde in Na+/K+ balanced PBS and brains were extracted, incubated in 4% formaldehyde overnight followed by 30% sucrose in Na+/K+ balanced PBS. Brains were flash frozen in isopentane, embedded in optimal cutting temperature compound (OCT), cryosectioned in coronal sections (12 μm) and stained with hematoxylin and eosin. Another cohort of equivalently drug-treated mice was used for liver, lung and gut histology. The mice were then sacrificed on day 19, and the liver, lung and gut tissues were collected and placed in 4% formaldehyde in Na+/K+ balanced PBS overnight. The organs were then placed for 48 hrs in 70% EtOH before paraffin embedding and sectioning at 6 μm. Sections were then stained with hematoxylin and eosin and pathology was assessed blindly and independently by a trained pathologist. A TUNEL staining kit was obtained from TREVIGEN (NeuroTACS II In Situ Apoptosis Detection Kit, Cat#4823-30-K) and used for both ex-vivo slices and in-vitro staining according to manufacturers instructions.

[2] = tested on: GL-26 glioma cells; assay: Propidium iodide cell cycle analysis by flow cytometry; format: cell-based, murine (C57BL/6); conditions: SBP 48 hours
Experimental: GL-26 cells were plated at 4000 cells/well in a 96 well plate in GL-26 media (DMEM/F12 supplemented with 10% FCS, 1% penicillin/streptomycin, 1% L-glutamine and 1% non-essential amino acids). The cells were treated 1 day post-plating with 0.1-25 μM SBP for 48 hours. The cells were then detached with Trypsin/EDTA (Cellgro), washed and resuspended at 500,000 cells/ml in ice cold Na+/K+ balanced PBS and fixed by gently adding 70% ethanol and incubating for 2 hrs at 4° C. GL-26 cells were then resuspended in 300-500 μl PI/Triton X-100 staining solution: 10 ml of 0.1% (v/v) Triton X-100 (Sigma) in Na+/K+ balanced PBS with 2 mg DNAse-free RNAse A (Sigma) and 0.40 ml of 500 μg/ml PI (Roche). The stain was allowed to incubate at 37° C. for 15 minutes before acquisition on a BD FacsCanto II flow cytometer.

[3] = tested on: human foreskin fibroblasts (HFFs); assay: SRB toxicity assay on human foreskin fibroblasts; format: cell-based; conditions: Fibroblast
Experimental: The murine (C57BL/6) glioma cell line, GL-26, which is highly tumorigenic in the C57BL/6 mice. GL-26 cells were cultured in DMEM/F12 supplemented with 10% FCS, 1% penicillin/streptomycin, 1% L-glutamine and 1% non-essential amino acids. Human foreskin fibroblasts (HFFs) were cultured in DMEM/F12 supplemented with 10% FCS and 1% penicillin/streptomycin. Primary murine astrocytes were purified from C57BL/6 neonate brains and cultured in DMEM/F12 supplemented with 10% FCS, 1% non-essential amino acids, 1% Lglutamine, 50 IU/ml penicillin, […] and 10 mM Hepes buffer.
(§1) The sulforhodamine B (SRB) cytotoxicity assays were adapted from Skehan et al. (22). Briefly, either HFF, primary astrocytes or GL-26 cells were plated in 96-well plates at a density of 4,000 cells/well in a volume of 100 µL overnight at 37° C. and 5% CO2. DMSO stock solutions of SBP, MSBP or TMZ were used at a concentration range of 0.1-25 μM for 48 hr before the supernatant was discarded and the cells were fixed for 1 hr with 10% cold trichloroacetic acid (100 μL, per well). Cells used in recovery assay received fresh media for 48 hrs following the 48 hr drug incubation. The plate was then washed 5 times with de-ionized water, air dried, and stained with 0.4% SRB for 10 min (50 μL, per well). After washing 5 times in 1% acetic acid and air-drying, bound SRB was dissolved in 10 mM unbuffered Tris base (pH 10.5; 100 μL, per well). Bound SRB was then read by absorbance at 492 nm on a SpectraMax plate reader (Molecular Devices). The percent survival was then calculated based upon the absorbance values relative to control wells (0 μM SBP in 0.1% DMSO).

[4] = tested on: GL-26 glioma cells; assay: SRB recovery assay (48 hr drug, then 48 hr fresh media); format: cell-based, murine (C57BL/6); conditions: 48 hr drug + 48 hr recovery
Experimental: as §1
To test if constant SBP administration is necessary to maintain growth inhibition, an SRB recovery assay was performed where GL-26 cells were plated and treated as above, but SBP was removed after a 48-hour incubation and replaced by fresh media. […]

CCC(C)c1ccc2ccc3ccc(C(C)CC)nc3c2n1 (stereo not shown) [Compound 1, 2,9-di-sec-butyl-1,10-phenanthroline]
body weight regained, % of initial weight ([1]; 10 mg/kg i.v. days 1, 7, 13, 19-day trial): 98.1±3.4% | tumor section area (pixel area) at the largest tumor cross-section ([1]; 10 mg/kg i.v. days 1, 7, 13, sacrificed day 19, N=3): 5489±1369 | in situ TUNEL staining of brain tumor sections ([1]; day 19): dark brown cytoplasmic and nuclear staining indicative of cell necrosis and increased DNA fragmentation | tumors in treated mice smaller than in untreated control mice ([1]; mouse, in vivo): 5-10 times | cell cycle effect (propidium iodide) [2]: not arrested in the G1 phase | inhibition at 6 µM ([3]; 6 μM, 48 hours, read-out: HFF growth inhibition): ~20% | inhibition at 25 µM ([3]; 25 μM, 48 hours, read-out: HFF growth inhibition): 36.9 ± 1.3% | IC50 ([3]; not reached at 25 μM, read-out: IC50 on non-cancerous human fibroblast cells): > 25 µM | GL-26 cell growth inhibition 48 hours after completion of treatment ([4]; 0.8 mM SBP (so in the source)): 31.5±6.6% | GL-26 cell growth inhibition after extra incubation period ([4]; 1.6-25 mM SBP (so in the source)): up to 85.4±0.2%
